Data taken from patent US10428081B2, “EGFR inhibitor, preparation method and use thereof” (Shanghai Hansoh Biomedical Co., Ltd., priority 2014, dated 2019).

Legend:
[1] = target: exon 20 T790M mutant-type EGFR enzyme (Homo sapiens, UniProt P00533, T790M); assay: Enzymologic experiment of T790M mutant-type EGFR (TR-FRET); type: biochemical; conditions: for IC50: T790M EGFR enzyme, TR-FRET, ATP 1 to 10 uM; for Selectivity of wild-type/mutant-type: ratio WT IC50 / T790M IC50, enzyme
Protocol: (§1) 2) 1 to 5 μL of diluted solution in gradient of the compound was added.
(§2) 3) The mixture was incubated for 10 minutes at room temperature.
(§3) 6) 5 μL of EDTA stop solution was added to terminate the reaction for 5 minutes.
7) […] of a test solution containing the labeled antibody was added, and the mixture was incubated at room temperature for 1 hour.
9) The inhibition rates were calculated according to the fluorescence signal values.
(§4) 10) The IC50 of the compound was obtained by curve fitting according to the inhibition rates at different concentrations.

[2] = target: wild-type EGFR enzyme (Homo sapiens, UniProt P00533); assay: Enzymologic experiment of wild-type (WT) EGFR (TR-FRET); type: biochemical; conditions: ATP 0.1 to 5 uM
Chain of wild-type EGFR enzyme (P00533 25-1210): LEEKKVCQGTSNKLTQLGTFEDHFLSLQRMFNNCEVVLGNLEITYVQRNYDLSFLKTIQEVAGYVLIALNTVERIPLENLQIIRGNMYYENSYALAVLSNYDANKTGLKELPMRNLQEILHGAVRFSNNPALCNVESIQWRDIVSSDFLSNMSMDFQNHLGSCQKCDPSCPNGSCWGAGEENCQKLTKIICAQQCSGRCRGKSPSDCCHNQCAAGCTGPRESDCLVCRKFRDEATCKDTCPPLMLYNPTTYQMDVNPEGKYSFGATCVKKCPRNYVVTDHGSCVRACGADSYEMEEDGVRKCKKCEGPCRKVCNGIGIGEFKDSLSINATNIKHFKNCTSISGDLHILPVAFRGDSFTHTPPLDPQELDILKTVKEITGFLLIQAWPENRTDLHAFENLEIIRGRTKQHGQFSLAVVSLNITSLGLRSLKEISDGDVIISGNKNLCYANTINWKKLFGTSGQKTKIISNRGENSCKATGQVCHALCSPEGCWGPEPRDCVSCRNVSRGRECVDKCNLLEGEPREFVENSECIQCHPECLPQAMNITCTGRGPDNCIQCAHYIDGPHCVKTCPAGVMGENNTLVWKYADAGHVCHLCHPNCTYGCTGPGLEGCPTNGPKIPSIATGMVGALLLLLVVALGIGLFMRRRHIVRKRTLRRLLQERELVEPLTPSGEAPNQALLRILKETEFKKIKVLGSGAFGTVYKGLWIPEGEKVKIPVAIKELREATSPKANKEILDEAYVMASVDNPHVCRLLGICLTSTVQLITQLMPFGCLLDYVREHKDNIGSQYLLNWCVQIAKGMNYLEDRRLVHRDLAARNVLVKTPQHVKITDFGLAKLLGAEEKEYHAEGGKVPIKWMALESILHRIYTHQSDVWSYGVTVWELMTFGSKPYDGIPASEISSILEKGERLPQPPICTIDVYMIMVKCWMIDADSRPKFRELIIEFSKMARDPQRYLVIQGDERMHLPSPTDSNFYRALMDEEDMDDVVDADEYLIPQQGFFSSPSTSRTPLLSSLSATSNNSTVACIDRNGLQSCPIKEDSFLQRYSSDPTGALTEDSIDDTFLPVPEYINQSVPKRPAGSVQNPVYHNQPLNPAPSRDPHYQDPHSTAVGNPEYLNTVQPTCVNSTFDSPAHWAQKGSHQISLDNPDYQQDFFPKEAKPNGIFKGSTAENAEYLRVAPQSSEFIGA
Protocol: 2. Enzymologic Experiment of Wild-Type (WT) EGFR
In this experiment, the inhibitory effect of compounds on wild-type EGFR enzyme was tested by a fluorescence resonance energy transfer (TR-FRET) method, and the half maximal inhibitory concentration IC50 of the compounds on enzymatic activity was determined.
1) 1 to 5 μL of wild-type EGFR enzyme solution was added to a 384-well plate, and the final concentration of the enzyme was 0.1 to 1 nM.
as §1, §2, §3
7) 5 μL of a test solution containing the labeled antibody was added, and the mixture was incubated at room temperature for 1 hour.
9) The inhibition rates were calculated from the fluorescence signal values.
as §4

[3] = system: NCI-H1975 cells; assay: Inhibition of NCI-H1975 cell proliferation (CellTiter-Glo); type: cell-based; conditions: Homo sapiens, NCI-H1975, 72 h, NCI-H1975 cell proliferation, 72 hours, CellTiter-Glo; read-out: EGFR IC50 (nM) H1975
Protocol: 3. Experiment on the Inhibition of NCI-H1975 Cell Proliferation
In this experiment, the inhibitory effect of the compounds on NCI-H1975 cell proliferation was tested by a CellTiter-Glo method, and the half maximal inhibitory concentration (IC50) of the compounds on the activity of cell proliferation was determined.
The culture plate was incubated in an incubator for 16 to 24 hours (37° C., 5% CO2).
2) Different concentrations of the test compound in a gradient dilution were added to the cells in the culture plate. The culture plate was incubated in an incubator for 72 hours (37° C., 5% CO2).
3) 50 to 100 μL of CellTiter-Glo reagent was added to each well. Then, the culture plate was shaken for 10 minutes, and left to stand at room temperature for 10 minutes.
4) The chemiluminescence signal values of each plate were determined by a microplate reader.
5) The inhibition rates were calculated according to the chemiluminescence signal values.
6) The IC50 of the compound was obtained by curve fitting according to the inhibition rates at different concentrations.

Chain of exon 20 T790M mutant-type EGFR enzyme (P00533 25-1210 T790M): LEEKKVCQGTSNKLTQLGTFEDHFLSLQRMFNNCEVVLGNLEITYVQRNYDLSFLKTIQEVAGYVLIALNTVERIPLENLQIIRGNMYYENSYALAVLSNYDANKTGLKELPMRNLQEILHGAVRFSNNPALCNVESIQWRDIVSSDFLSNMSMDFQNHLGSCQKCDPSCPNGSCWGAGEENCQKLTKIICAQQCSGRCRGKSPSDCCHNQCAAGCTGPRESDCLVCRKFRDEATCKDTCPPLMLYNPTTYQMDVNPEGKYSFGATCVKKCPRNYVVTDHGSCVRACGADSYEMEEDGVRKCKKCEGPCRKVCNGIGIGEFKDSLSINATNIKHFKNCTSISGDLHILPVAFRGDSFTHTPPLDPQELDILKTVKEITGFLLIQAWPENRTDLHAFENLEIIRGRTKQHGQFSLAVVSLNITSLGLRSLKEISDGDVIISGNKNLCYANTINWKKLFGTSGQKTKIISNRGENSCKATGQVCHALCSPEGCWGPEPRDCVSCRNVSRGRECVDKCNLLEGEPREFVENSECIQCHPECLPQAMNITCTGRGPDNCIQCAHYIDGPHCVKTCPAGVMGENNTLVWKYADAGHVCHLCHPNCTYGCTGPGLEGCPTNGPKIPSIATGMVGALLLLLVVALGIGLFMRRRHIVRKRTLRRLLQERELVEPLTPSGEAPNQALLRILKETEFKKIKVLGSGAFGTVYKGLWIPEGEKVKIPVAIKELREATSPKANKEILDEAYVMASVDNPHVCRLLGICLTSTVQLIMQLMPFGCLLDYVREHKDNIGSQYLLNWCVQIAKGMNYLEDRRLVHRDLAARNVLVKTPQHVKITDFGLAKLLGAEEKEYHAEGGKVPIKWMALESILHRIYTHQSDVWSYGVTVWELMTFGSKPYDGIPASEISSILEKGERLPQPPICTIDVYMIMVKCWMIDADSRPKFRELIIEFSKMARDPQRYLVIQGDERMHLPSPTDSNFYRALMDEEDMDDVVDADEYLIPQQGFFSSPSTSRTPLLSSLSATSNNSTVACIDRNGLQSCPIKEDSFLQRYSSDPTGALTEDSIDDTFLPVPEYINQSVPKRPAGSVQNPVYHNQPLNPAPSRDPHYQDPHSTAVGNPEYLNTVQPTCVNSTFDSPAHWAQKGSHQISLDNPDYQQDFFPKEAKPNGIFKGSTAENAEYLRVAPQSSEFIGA

Structure (SMILES) | IC50 [1] | Selectivity of wild-type/mutant-type [1] | IC50 [2] | IC50 [3]
C=CC(=O)Nc1cc(Nc2nccc(-c3cn(C)c4ccccc34)n2)c(OC(F)F)cc1N(C)CCN(C)C [Example 1, N-(4-(difluoromethoxy)-2-((2-(dimethylamino)ethyl)(methyl)amino)-5-((4-(1-methyl-1H-indol-3-yl)pyrimidin-2-yl)amino)phenyl)acrylamide] | 0.15 nM | 13 | 2 nM | –
C=CC(=O)Nc1cc(Nc2nccc(-c3cn(C)c4ccccc34)n2)c(OC(F)F)cc1N(C)CCN1CCOCC1=O [Example 3, N-(4-(difluoromethoxy)-2-(methyl(2-(3-carbonylmorpholino)ethyl)amino)-5-((4-(1-methyl-1H-indol-3-yl)pyrimidin-2-yl)amino)phenyl)acrylamide] | 144 nM | – | – | –
C=CC(=O)Nc1cc(Nc2nccc(-c3cn(C)c4cc(P(C)(C)=O)ccc34)n2)c(OC(F)F)cc1N(C)CCN(C)C [Example 11, N-(4-(difluoromethoxy)-2-((2-(dimethylamino)ethyl)(methyl)amino)-5-((4-(6-(dimethylphosphoryl)-1-methyl-1H-indol-3-yl)pyrimidin-2-yl)amino)phenyl)acrylamide] | 2.74 nM | 23.39 | 64.1 nM | 24.6 nM
C=CC(=O)Nc1cc(Nc2nccc(-c3cn(C4CC4)c4ccccc34)n2)c(OC(F)F)cc1N(C)CCN(C)C [Example 12, N-(5-((4-(1-cyclopropyl-1H-indol-3-yl)pyrimidin-2-yl)amino)-4-(difluoromethoxy)-2-((2-(dimethylamino)ethyl)(methyl)amino)phenyl)acrylamide] | 0.32 nM | 18.7 | 6.01 nM | –
C=CC(=O)Nc1cc(Nc2nccc(-c3cn(C)c4ccc(C5CC5)cc34)n2)c(OC)cc1N(C)CCN(C)C [Example 23, N-(5-((4-(5-cyclopropyl-1-methyl-1H-indol-3-yl)pyrimidin-2-yl)amino)-2-((2-(dimethylamino)ethyl)(methyl)amino)-4-methoxyphenyl)acrylamide] | 2.75 nM | – | – | 46.8 nM
C=CC(=O)Nc1cc(Nc2nccc(-c3cn(C)c4ccccc34)n2)c(OC)cc1N1CC2(COC2)C1 [Example 27, N-(4-methoxy-5-((4-(1-methyl-1H-indol-3-yl)pyrimidin-2-yl)amino)-2-(2-oxa-6-azaspiro[3,3]heptan-6-yl)phenyl)acrylamide] | 50.2 nM | – | – | –
C=CC(=O)Nc1cc(Nc2nccc(-c3cn(C)c4cc(F)cc(F)c34)n2)c(OC)cc1N(C)CCN(C)C [Example 29, N-(5-((4-(4,6-difluoro-1-methyl-1H-indol-3-yl)pyrimidin-2-yl)amino)-2-((2-(dimethylamino)ethyl)(methyl)amino)-4-methoxyphenyl)acrylamide] | 16.5 nM | – | – | –
C=CC(=O)Nc1cc(Nc2nccc(-n3ncc4cc(OC)ccc43)n2)c(OC)cc1N(C)CCN(C)C [Example 43, N-(2-((2-(dimethylamino)ethyl)(methyl)amino)-4-methoxy-5-((4-(5-methoxy-1H-indazol-1-yl)pyrimidin-2-yl)amino)phenyl)acrylamide] | 0.38 nM | 9.8 | 3.77 nM | –
C=CC(=O)Nc1cc(Nc2nccc(-n3ncc4cc(C5CC5)ccc43)n2)c(OC)cc1N(C)CCN(C)C [Example 47, N-(5-((4-(5-cyclopropyl-1H-indazol-1-yl)pyrimidin-2-yl)amino)-2-((2-(dimethylamino)ethyl)(methyl)amino)-4-methoxyphenyl)acrylamide] | 41.4 nM | – | – | –
C=CC(=O)Nc1cc(Nc2ncc(C(F)(F)F)c(-n3ncc4cc(C#N)ccc43)n2)c(OC)cc1N(C)CCN(C)C [Example 52, N-(5-((4-(5-cyano-1H-indazol-1-yl)-5-(trifluoromethyl)pyrimidin-2-yl)amino)-2-((2-(dimethylamino)ethyl)(methyl)amino)-4-methoxyphenyl)acrylamide] | 1.08 nM | 107.1 | 116 nM | 4.52 nM
C=CC(=O)Nc1cc(Nc2nccc(-n3cnc4cc(OC)ccc43)n2)c(OC)cc1N(C)CCN(C)C [Example 59, N-(2-((2-(dimethylamino)ethyl)(methyl)amino)-4-methoxy-5-((4-(5-methoxy-1H-benzo[d]imidazol-1-yl)pyrimidin-2-yl)amino)phenyl)acrylamide] | 0.35 nM | 12.7 | 4.44 nM | –
C=CC(=O)Nc1cc(Nc2ncc(C(F)(F)F)c(-n3cnc4ccc(OC)cc43)n2)c(OC)cc1N(C)CCN(C)C [Example 68, N-(2-((2-(dimethylamino)ethyl)(methyl)amino)-4-methoxy-5-((4-(6-methoxy-1H-benzo[d]imidazol-1-yl)-5-(trifluoromethyl)pyrimidin-2-yl)amino)phenyl)acrylamide] | 0.99 nM | 193.03 | 191 nM | –
C=CC(=O)Nc1cc(Nc2nccc(-n3c(C)nc4cc(OC)ccc43)n2)c(OC)cc1N(C)CCN(C)C [Example 71, N-(2-((2-(dimethylamino)ethyl)(methyl)amino)-4-methoxy-5-((4-(5-methoxy-2-methyl-1H-benzo[d]imidazol-1-yl)pyrimidin-2-yl)amino)phenyl)acrylamide] | 28.1 nM | – | – | –
C=CC(=O)Nc1cc(Nc2nccc(-n3c(C)nc4ccc(C#N)cc43)n2)c(OC)cc1N(C)CCN(C)C [Example 74, N-(5-((4-(6-cyano-2-methyl-1H-benzo[d]imidazol-1-yl)pyrimidin-2-yl)amino)-2-((2-(dimethylamino)ethyl)(methyl)amino)-4-methoxyphenyl)acrylamide] | 26 nM | – | – | –
C=CC(=O)Nc1cc(Nc2ncc(Cl)c(-n3nc(OC)c4cc(Cl)ccc43)n2)c(OC)cc1N(C)CCN(C)C [Example 108, N-(5-((5-chloro-4-(5-chloro-3-methoxy-1H-indazol-1-yl)pyrimidin-2-yl)amino)-2-((2-(dimethylamino)ethyl)(methyl)amino)-4-methoxyphenyl)acrylamide] | 1.33 nM | 89.47 | 119 nM | –
C=CC(=O)Nc1cc(Nc2ncc(C(F)(F)F)c(-n3nc(OC)c4cc(Cl)ccc43)n2)c(OC)cc1N(C)CCN(C)C [Example 109, N-(5-((4-(5-chloro-3-methoxy-1H-indazol-1-yl)-5-(trifluoromethyl)pyrimidin-2-yl)amino)-2-((2-(dimethylamino)ethyl)(methyl)amino)-4-methoxyphenyl)acrylamide] | 5.18 nM | 74.79 | 387 nM | –
C=CC(=O)Nc1cc(Nc2nccc(-n3nc(OC)c4cc(Cl)ccc43)n2)c(OC)cc1N(C)CCN(C)C [Example 110, N-(5-((4-(5-chloro-3-methoxy-1H-indazol-1-yl)pyrimidin-2-yl)amino)-2-((2-(dimethylamino)ethyl)(methyl)amino)-4-methoxyphenyl)acrylamide] | 1.06 nM | 9.10 | 9.65 nM | –
C=CC(=O)Nc1cc(Nc2ncc(Cl)c(-n3nc(CCC)c4cc(C#N)ccc43)n2)c(OC)cc1N(C)CCN(C)C [Example 116, N-(5-((5-chloro-4-(5-cyano-3-propyl-1H-indazol-1-yl)pyrimidin-2-yl)amino)-2-((2-(dimethylamino)ethyl)(methyl)amino)-4-methoxyphenyl)acrylamide] | 0.8 nM | 24.45 | 19.6 nM | –
